Experimental data published in patent US9040545B2, “Heterocyclyl pyrazolopyrimidine analogues as selective JAK inhibitors” (Cellzome Limited, priority 2010, dated 2015).

Key:
JAK3 = target: T1, JAK3 (Homo sapiens, UniProt P52333); assay: Kinobeads assay, JAK3; format: binding; conditions: mixed Molt4/Ramos lysate, read-out: Inhibition values (IC50) JAK3
T1 construct: endogenous in cells; host or cells: mixed Molt4/Ramos lysate (1:2)
T1 sequence (P52333 1-1124): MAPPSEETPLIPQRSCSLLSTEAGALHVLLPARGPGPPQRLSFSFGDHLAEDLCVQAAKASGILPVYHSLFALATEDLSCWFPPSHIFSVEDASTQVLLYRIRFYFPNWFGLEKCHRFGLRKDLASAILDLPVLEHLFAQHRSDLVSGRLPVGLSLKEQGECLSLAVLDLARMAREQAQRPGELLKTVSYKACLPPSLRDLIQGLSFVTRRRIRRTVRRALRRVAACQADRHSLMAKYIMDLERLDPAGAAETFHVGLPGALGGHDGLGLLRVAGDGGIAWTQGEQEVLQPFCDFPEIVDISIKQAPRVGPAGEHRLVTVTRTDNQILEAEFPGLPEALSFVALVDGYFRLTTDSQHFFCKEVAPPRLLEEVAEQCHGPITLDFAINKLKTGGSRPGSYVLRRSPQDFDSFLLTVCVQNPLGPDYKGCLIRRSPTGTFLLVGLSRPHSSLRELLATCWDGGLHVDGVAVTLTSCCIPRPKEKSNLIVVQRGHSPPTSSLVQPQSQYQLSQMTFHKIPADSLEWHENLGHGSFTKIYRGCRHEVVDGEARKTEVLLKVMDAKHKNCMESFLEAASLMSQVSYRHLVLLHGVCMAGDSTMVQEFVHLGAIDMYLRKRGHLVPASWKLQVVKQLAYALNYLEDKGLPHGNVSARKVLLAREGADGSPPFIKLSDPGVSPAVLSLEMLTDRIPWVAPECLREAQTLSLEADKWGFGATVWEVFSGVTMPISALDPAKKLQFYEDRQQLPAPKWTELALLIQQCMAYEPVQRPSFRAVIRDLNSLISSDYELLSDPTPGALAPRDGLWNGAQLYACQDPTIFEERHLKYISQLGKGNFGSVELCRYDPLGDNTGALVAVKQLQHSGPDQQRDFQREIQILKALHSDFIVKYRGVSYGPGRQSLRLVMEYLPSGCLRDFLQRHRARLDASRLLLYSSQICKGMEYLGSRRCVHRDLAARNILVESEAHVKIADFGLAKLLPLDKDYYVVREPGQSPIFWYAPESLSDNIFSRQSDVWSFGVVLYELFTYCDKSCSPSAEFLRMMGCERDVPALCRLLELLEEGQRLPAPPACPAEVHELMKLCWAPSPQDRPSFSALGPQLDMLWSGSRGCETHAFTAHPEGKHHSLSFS
Procedure, shortened: (§1)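 IC50 values come from dose-response curves of JAK2/JAK3 captured on immobilized aminopyrido-pyrimidine beads, quantified by antibody dot blot with infrared read-out. Compounds (1:3 series, 9 steps, from 5 mM DMSO stock) competed for 3 h in the cold with mixed Molt4/Ramos lysate (1:2, 10 mg/mL protein).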

JAK2 = target: T2, JAK2 (Homo sapiens, UniProt O60674); assay: Kinobeads assay, JAK2; format: binding; conditions: mixed Molt4/Ramos lysate, read-out: Inhibition values (IC50) JAK2
T2 construct: endogenous in cells; host or cells: mixed Molt4/Ramos lysate (1:2)
T2 sequence (O60674 whole entry): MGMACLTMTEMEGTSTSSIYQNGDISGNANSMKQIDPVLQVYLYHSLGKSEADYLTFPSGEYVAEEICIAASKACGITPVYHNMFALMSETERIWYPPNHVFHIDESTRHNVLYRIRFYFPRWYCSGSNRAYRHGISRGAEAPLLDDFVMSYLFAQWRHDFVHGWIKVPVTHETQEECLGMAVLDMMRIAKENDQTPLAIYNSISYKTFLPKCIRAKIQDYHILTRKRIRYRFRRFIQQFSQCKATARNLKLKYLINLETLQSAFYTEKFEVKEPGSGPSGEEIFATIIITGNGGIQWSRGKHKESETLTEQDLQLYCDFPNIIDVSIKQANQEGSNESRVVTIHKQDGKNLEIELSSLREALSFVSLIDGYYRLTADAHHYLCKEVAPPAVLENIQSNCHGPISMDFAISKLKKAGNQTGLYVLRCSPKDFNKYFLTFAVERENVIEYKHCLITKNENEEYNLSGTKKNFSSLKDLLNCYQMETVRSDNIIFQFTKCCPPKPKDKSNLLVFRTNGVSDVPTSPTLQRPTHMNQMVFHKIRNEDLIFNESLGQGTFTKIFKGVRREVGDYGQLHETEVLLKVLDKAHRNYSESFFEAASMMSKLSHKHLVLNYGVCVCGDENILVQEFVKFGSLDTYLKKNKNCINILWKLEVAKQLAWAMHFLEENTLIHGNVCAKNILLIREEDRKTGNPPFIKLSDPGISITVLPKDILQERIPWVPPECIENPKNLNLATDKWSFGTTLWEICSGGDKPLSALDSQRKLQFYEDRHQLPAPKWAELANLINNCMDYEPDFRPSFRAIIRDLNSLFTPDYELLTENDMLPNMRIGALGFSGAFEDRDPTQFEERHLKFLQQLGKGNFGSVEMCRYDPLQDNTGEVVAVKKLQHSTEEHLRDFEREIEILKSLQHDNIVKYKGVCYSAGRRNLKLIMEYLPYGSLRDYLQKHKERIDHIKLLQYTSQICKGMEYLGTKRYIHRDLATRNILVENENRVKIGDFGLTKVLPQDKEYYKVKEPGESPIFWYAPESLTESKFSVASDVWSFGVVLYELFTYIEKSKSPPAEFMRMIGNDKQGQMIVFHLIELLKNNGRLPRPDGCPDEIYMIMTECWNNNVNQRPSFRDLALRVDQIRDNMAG
Procedure, shortened: as §1

Row | SMILES | IC50 (JAK3) [nM] | IC50 (JAK2) [nM]
1 | O=C1CNCCN1c1cccc(Cn2ncc3cnc(Nc4cnn(CCO)c4)nc32)c1F [Example 55, 1-(2-Fluoro-3-((6-((1-(2-hydroxyethyl)-1H-pyrazol-4-yl)amino)-1H-pyrazolo[3,4-d]pyrimidin-1-yl)methyl)phenyl)piperazin-2-one] | < 100 | 1000 to 10000
2 | CN(C)CCCn1cc(Nc2ncc3cnn(Cc4cccc(N5CCOCC5=O)c4F)c3n2)cn1 [Example 50, 4-(3-((6-((1-(3-(Dimethylamino)propyl)-1H-pyrazol-4-yl)amino)-1H-pyrazolo[3,4-d]pyrimidin-1-yl)methyl)-2-fluorophenyl)morpholin-3-one] | < 100 | 1000 to 10000
3 | Cn1cc(Nc2ncc3cnn(Cc4cccc(N5CCNCC5)c4F)c3n2)cn1 [Example 67, 1-(2-Fluoro-3-(piperazin-1-yl)benzyl)-N-(1-methyl-1H-pyrazol-4-yl)-1H-pyrazolo[3,4-d]pyrimidin-6-amine] | < 100 | 1000 to 10000
4 | c1cc(Cn2ncc3cnc(Nc4cnn(CC5CCCNC5)c4)nc32)cc(N2CCOCC2)c1 (centres unmarked) [Example 48, 1-(3-Morpholinobenzyl)-N-(1-(piperidin-3-ylmethyl)-1H-pyrazol-4-yl)-1H-pyrazolo[3,4-d]pyrimidin-6-amine] | < 100 | 1000 to 10000
5 | O=C1CNCCN1c1cccc(Cn2ncc3cnc(Nc4cnn(CCO)c4)nc32)c1 [Example 57, 1-(3-((6-((1-(2-Hydroxyethyl)-1H-pyrazol-4-yl)amino)-1H-pyrazolo[3,4-d]pyrimidin-1-yl)methyl)phenyl)piperazin-2-one] | < 100 | ≥ 10000
6 | CN(C)CCCn1cc(Nc2ncc3cnn(Cc4cccc(N5CCOCC5)c4F)c3n2)cn1 [Example 43, N-(1-(3-(Dimethylamino)propyl)-1H-pyrazol-4-yl)-1-(2-fluoro-3-morpholinobenzyl)-1H-pyrazolo[3,4-d]pyrimidin-6-amine] | < 100 | 1000 to 10000
7 | CN(C)CCCn1cc(Nc2ncc3cnn(Cc4c(F)c(F)cc(N5CCOCC5)c4F)c3n2)cn1 [Example 42, N-(1-(3-(Dimethylamino)propyl)-1H-pyrazol-4-yl)-1-(2,3,6-trifluoro-5-morpholinobenzyl)-1H-pyrazolo[3,4-d]pyrimidin-6-amine] | < 100 | 1000 to 10000
8 | Cn1cc(Nc2ncc3cnn(Cc4cc(F)cc(N5CCNCC5=O)c4)c3n2)cn1 [Example 64, 1-(3-Fluoro-5-((6-((1-methyl-1H-pyrazol-4-yl)amino)-1H-pyrazolo[3,4-d]pyrimidin-1-yl)methyl)phenyl)piperazin-2-one] | < 100 | 1000 to 10000
9 | Cn1cc(Nc2ncc3cnn(Cc4c(F)c(F)cc(N5CCOCC5=O)c4F)c3n2)cn1 [Example 61, 4-(2,4,5-Trifluoro-3-((6-((1-methyl-1H-pyrazol-4-yl)amino)-1H-pyrazolo[3,4-d]pyrimidin-1-yl)methyl)phenyl)morpholin-3-one] | < 100 | 1000 to 10000
10 | c1cc(Cn2ncc3cnc(Nc4cnn(CC5CCNC5)c4)nc32)cc(N2CCOCC2)c1 (centres unmarked) [Example 60, 1-(3-Morpholinobenzyl)-N-(1-(pyrrolidin-3-ylmethyl)-1H-pyrazol-4-yl)-1H-pyrazolo[3,4-d]pyrimidin-6-amine] | < 100 | 1000 to 10000
11 | Cn1cc(Nc2ncc3cnn(Cc4cc(N5CCOCC5=O)cc(F)c4F)c3n2)cn1 [Example 53, 4-(3,4-Difluoro-5-((6-((1-methyl-1H-pyrazol-4-yl)amino)-1H-pyrazolo[3,4-d]pyrimidin-1-yl)methyl)phenyl)morpholin-3-one] | < 100 | ≥ 10000
12 | Cn1cc(Nc2ncc3cnn(Cc4cccc(N5CCNCC5=O)c4F)c3n2)cn1 [Example 54, 1-(2-Fluoro-3-((6-((1-methyl-1H-pyrazol-4-yl)amino)-1H-pyrazolo[3,4-d]pyrimidin-1-yl)methyl)phenyl)piperazin-2-one] | < 100 | 1000 to 10000

The remaining lines, values ahead:

Row | IC50 (JAK3) [nM] | IC50 (JAK2) [nM] | SMILES
13 | < 100 | 1000 to 10000 | CNC(=O)Cn1cc(Nc2ncc3cnn(Cc4cc(F)cc(N5CCOCC5=O)c4)c3n2)cn1 [Example 68, 2-(4-((1-(3-Fluoro-5-(3-oxomorpholino)benzyl)-1H-pyrazolo[3,4-d]pyrimidin-6-yl)amino)-1H-pyrazol-1-yl)-N-methylacetamide]
14 | < 100 | 1000 to 10000 | Cn1cc(Nc2ncc3cnn(Cc4c(F)ccc(N5CCOCC5=O)c4F)c3n2)cn1 [Example 69, 4-(2,4-Difluoro-3-((6-((1-methyl-1H-pyrazol-4-yl)amino)-1H-pyrazolo[3,4-d]pyrimidin-1-yl)methyl)phenyl)morpholin-3-one]
15 | < 100 | 1000 to 10000 | OCCn1cc(Nc2ncc3cnn(Cc4cc(N5CCNCC5)cc(F)c4F)c3n2)cn1 [Example 78, 2-(4-((1-(2,3-Difluoro-5-(piperazin-1-yl)benzyl)-1H-pyrazolo[3,4-d]pyrimidin-6-yl)amino)-1H-pyrazol-1-yl)ethanol]
16 | < 100 | 1000 to 10000 | OCCn1cc(Nc2ncc3cnn(Cc4cccc(N5CCNCC5)c4F)c3n2)cn1 [Example 83, 2-(4-((1-(2-Fluoro-3-(piperazin-1-yl)benzyl)-1H-pyrazolo[3,4-d]pyrimidin-6-yl)amino)-1H-pyrazol-1-yl)ethanol]
17 | < 100 | ≥ 10000 | O=C1CNCCN1c1cc(F)c(F)c(Cn2ncc3cnc(Nc4cnn(CCO)c4)nc32)c1 [Example 72, 1-(3,4-Difluoro-5-((6-((1-(2-hydroxyethyl)-1H-pyrazol-4-yl)amino)-1H-pyrazolo[3,4-d]pyrimidin-1-yl)methyl)phenyl)piperazin-2-one]
18 | 100 to 1000 | ≥ 10000 | Cn1cc(Nc2ncc3cnn(Cc4cccc(N5CCOCC5O)c4)c3n2)cn1 (centres unmarked) [Example 88, 4-(3-((6-((1-Methyl-1H-pyrazol-4-yl)amino)-1H-pyrazolo[3,4-d]pyrimidin-1-yl)methyl)phenyl)morpholin-3-ol]
19 | < 100 | 1000 to 10000 | Cn1cc(Nc2ncc3cnn(Cc4cc(N5CCNCC5)cc(F)c4F)c3n2)cn1 [Example 86, 1-(2,3-Difluoro-5-(piperazin-1-yl)benzyl)-N-(1-methyl-1H-pyrazol-4-yl)-1H-pyrazolo[3,4-d]pyrimidin-6-amine]
20 | < 100 | 1000 to 10000 | O=C(c1cccc(Cn2ncc3cnc(Nc4cnn(CCO)c4)nc32)c1F)N1CCOCC1 [Example 85, (2-Fluoro-3-((6-((1-(2-hydroxyethyl)-1H-pyrazol-4-yl)amino)-1H-pyrazolo[3,4-d]pyrimidin-1-yl)methyl)phenyl)(morpholino)methanone]
21 | < 100 | ≥ 10000 | Cn1cc(Nc2ncc3cnn(Cc4cc(N5CCNCC5=O)cc(F)c4F)c3n2)cn1 [Example 71, 1-(3,4-Difluoro-5-((6-((1-methyl-1H-pyrazol-4-yl)amino)-1H-pyrazolo[3,4-d]pyrimidin-1-yl)methyl)phenyl)piperazin-2-one]
22 | < 100 | 1000 to 10000 | CN(C)CCCn1cc(Nc2ncc3cnn(Cc4c(F)c(F)cc(N5CCOCC5=O)c4F)c3n2)cn1 [Example 70, 4-(3-((6-((1-(3-(Dimethylamino)propyl)-1H-pyrazol-4-yl)amino)-1H-pyrazolo[3,4-d]pyrimidin-1-yl)methyl)-2,4,5-trifluorophenyl)morpholin-3-one]
